Legend:
Test in all cases: biochemical
Parameters in all cases: DiscoverX KINOMEscan scanMAX competition binding panel, single concentration, percent of control; remaining binding: dose or concentration left out as unconfirmed
Settings in all cases: KINOMEscan binding, percent of control; read-out: Table S4_SCANMAX REPORT - related to Fig. 1 / Percent Control
EGFR = EGFR (Homo sapiens, UniProt P00533)
ABL1-phosphorylated = target: T1, ABL1-phosphorylated (Homo sapiens, UniProt P00519)
T1 construct: phosphorylated

CDKL5 = CDKL5 (Homo sapiens, UniProt O76039)
NDR1 = target: T2, NDR1 (Homo sapiens, UniProt Q15208)
T2 construct: gene STK38

MAP3K1 = MAP3K1 (Homo sapiens, UniProt Q13233)
EPHB6 = EPHB6 (Homo sapiens, UniProt O15197)
[1] = target: T3, ABL1(Q252H)-phosphorylated (Homo sapiens, UniProt P00519, Q252H)
T3 construct: phosphorylated

PDPK1 = PDPK1 (Homo sapiens, UniProt O15530)
LYN = LYN (Homo sapiens, UniProt P07948)
MKNK2 = MKNK2 (Homo sapiens, UniProt Q9HBH9)
TRKC = target: T4, TRKC (Homo sapiens, UniProt Q16288)
T4 construct: gene NTRK3

[2] = target: T5, ABL1(E255K)-phosphorylated (Homo sapiens, UniProt P00519, E255K)
T5 construct: phosphorylated

FLT3(K663Q) = FLT3(K663Q) (Homo sapiens, UniProt P36888, K663Q)
WNK3 = WNK3 (Homo sapiens, UniProt Q9BYP7)
EGFR(G719C) = EGFR(G719C) (Homo sapiens, UniProt P00533, G719C)
NEK10 = NEK10 (Homo sapiens, UniProt Q6ZWH5)
PAK6 = PAK6 (Homo sapiens, UniProt Q9NQU5)
DRAK2 = target: T6, DRAK2 (Homo sapiens, UniProt O94768)
T6 construct: gene STK17B

Chain of EPHB6 (O15197 whole entry): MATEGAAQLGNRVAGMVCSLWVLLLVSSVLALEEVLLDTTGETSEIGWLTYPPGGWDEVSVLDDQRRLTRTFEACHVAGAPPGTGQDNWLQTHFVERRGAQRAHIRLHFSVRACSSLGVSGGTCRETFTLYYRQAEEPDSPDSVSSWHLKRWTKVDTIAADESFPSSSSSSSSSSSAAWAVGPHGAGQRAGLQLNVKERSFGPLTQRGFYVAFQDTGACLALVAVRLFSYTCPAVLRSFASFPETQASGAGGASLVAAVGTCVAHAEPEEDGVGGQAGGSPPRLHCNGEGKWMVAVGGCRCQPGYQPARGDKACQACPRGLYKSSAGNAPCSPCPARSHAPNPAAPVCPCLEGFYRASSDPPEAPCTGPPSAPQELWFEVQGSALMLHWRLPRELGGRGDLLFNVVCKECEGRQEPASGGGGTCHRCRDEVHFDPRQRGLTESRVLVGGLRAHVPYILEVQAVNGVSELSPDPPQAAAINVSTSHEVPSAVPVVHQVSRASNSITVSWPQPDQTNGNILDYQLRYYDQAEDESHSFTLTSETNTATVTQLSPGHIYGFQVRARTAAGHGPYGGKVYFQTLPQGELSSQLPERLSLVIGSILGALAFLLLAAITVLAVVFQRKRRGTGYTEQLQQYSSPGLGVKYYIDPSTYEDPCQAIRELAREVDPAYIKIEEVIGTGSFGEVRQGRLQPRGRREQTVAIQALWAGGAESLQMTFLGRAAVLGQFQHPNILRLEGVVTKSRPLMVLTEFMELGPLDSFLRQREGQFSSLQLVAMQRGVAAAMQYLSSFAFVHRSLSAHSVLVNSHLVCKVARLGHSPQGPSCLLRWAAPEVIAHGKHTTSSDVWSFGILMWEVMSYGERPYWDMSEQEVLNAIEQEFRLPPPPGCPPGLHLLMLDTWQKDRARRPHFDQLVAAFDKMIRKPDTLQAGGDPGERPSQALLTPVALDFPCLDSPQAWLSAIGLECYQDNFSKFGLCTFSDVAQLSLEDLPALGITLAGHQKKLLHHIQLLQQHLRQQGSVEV
Chain of EGFR(G719C) (P00533 whole entry G719C): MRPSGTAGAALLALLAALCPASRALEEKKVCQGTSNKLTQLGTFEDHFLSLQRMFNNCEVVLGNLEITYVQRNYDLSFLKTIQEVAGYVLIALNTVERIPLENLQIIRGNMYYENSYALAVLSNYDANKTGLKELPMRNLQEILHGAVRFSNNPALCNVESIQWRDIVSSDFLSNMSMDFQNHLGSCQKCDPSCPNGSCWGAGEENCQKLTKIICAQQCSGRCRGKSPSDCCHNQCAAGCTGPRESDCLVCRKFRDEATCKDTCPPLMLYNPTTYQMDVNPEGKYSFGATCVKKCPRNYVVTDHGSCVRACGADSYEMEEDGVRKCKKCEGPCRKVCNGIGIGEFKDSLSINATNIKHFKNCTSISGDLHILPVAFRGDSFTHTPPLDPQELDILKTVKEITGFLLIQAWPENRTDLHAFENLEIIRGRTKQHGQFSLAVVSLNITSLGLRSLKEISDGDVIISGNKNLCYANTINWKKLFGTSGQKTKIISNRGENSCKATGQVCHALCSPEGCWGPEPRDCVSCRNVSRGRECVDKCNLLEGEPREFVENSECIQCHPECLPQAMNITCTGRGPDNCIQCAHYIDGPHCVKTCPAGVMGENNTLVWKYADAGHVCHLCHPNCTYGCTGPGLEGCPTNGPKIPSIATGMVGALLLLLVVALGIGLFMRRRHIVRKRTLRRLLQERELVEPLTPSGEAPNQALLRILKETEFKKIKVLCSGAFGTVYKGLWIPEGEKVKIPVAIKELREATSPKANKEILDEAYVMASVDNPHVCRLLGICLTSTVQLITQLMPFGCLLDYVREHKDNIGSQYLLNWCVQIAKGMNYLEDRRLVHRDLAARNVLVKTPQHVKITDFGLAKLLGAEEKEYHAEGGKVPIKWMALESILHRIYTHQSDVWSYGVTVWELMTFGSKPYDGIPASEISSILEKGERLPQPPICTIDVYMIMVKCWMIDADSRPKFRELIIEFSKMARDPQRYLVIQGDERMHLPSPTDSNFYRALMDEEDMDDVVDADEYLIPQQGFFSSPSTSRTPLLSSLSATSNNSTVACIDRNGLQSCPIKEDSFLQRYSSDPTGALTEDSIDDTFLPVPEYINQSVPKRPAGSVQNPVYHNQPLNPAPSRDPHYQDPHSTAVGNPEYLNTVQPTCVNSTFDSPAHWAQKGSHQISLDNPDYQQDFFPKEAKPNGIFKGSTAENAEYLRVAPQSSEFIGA
T4 sequence (Q16288 whole entry): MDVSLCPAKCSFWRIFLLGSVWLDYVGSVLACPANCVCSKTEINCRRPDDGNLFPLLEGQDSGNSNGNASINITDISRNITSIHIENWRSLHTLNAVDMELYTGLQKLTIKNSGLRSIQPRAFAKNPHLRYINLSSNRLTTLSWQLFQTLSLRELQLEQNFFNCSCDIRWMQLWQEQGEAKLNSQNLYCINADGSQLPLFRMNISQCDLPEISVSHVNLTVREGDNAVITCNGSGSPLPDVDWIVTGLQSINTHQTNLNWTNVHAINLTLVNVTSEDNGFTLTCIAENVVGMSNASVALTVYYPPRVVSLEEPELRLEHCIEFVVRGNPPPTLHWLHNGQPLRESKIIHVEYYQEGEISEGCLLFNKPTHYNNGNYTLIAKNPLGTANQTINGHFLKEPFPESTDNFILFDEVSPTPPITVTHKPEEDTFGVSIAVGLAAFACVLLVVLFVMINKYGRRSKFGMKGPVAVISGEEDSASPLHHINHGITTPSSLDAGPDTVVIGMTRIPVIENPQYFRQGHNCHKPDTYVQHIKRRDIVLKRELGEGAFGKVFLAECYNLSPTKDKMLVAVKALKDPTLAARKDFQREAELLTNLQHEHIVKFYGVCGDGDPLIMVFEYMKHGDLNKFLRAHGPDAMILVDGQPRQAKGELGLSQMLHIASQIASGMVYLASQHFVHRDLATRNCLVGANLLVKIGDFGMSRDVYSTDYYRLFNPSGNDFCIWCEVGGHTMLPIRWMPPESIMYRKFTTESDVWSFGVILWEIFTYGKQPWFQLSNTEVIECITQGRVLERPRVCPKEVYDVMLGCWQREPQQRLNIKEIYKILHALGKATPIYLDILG
Chain of CDKL5 (O76039 whole entry): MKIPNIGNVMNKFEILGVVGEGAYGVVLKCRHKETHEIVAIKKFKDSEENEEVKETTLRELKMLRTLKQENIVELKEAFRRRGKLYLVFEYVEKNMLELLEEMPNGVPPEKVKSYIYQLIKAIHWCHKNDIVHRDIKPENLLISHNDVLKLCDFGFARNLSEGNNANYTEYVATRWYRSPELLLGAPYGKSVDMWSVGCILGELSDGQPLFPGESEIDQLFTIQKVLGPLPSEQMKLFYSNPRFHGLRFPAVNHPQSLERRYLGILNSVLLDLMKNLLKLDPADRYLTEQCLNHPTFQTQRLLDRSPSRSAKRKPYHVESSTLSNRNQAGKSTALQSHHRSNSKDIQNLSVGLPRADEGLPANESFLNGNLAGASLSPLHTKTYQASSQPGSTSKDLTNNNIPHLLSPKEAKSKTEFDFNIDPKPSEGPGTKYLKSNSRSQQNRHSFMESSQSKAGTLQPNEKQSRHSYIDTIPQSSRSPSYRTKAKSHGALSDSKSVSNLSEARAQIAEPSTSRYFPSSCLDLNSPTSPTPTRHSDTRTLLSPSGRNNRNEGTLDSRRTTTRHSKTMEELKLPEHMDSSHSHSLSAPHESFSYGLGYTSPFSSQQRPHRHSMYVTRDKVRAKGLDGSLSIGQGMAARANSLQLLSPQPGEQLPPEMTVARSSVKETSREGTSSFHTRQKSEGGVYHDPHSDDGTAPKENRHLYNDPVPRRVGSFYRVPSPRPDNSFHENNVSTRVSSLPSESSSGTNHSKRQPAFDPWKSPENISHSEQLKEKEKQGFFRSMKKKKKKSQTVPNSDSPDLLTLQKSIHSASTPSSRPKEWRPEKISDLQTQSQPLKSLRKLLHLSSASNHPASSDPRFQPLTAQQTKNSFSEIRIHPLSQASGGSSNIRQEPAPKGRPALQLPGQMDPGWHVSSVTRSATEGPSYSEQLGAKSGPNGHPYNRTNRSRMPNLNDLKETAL
Chain of LYN (P07948 whole entry): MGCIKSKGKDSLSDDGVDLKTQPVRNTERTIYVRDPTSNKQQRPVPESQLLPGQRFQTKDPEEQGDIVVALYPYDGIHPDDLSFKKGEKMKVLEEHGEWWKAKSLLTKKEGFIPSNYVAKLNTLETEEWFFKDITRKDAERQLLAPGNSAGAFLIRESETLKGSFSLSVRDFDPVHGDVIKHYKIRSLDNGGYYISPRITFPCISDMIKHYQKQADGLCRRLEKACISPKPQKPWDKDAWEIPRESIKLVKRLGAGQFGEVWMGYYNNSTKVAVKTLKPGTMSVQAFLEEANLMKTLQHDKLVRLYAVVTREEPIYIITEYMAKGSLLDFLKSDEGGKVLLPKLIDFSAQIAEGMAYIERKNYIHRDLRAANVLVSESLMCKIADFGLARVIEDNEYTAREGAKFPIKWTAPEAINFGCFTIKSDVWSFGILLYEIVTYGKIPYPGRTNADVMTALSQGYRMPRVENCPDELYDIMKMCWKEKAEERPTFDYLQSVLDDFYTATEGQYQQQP
Chain of PDPK1 (O15530 whole entry): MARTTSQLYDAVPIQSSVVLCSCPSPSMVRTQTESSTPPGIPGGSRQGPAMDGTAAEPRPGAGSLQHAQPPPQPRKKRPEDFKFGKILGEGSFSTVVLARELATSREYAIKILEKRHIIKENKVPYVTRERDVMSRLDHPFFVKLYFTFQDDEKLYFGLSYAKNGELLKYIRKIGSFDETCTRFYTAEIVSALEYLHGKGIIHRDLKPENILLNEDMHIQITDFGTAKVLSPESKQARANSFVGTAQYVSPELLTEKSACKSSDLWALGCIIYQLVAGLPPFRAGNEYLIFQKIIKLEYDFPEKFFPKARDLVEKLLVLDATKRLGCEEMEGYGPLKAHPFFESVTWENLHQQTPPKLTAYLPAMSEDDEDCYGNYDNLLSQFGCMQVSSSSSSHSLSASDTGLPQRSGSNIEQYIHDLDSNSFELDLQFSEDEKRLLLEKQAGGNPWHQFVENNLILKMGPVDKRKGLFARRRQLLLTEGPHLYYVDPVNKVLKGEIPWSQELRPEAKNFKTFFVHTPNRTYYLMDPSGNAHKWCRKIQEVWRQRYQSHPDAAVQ

`c1ccc2c(c1)Sc1ccccc1N2CCN1CCOCC1` [J54] gave a remaining binding (EGFR) of 92%, a remaining binding (ABL1-phosphorylated) of 71% and a remaining binding (CDKL5) of 100%. It also gave a remaining binding (NDR1) of 100%, a remaining binding (MAP3K1) of 100% and a remaining binding (EPHB6) of 74%. For the same compound, the remaining binding [1] was 90%, the remaining binding (PDPK1) was 92% and the remaining binding (LYN) was 98%. It also gave a remaining binding (MKNK2) of 90%, a remaining binding (TRKC) of 81% and a remaining binding [2] of 86%. The remaining binding (FLT3(K663Q)) was 94%, the remaining binding (WNK3) was 98% and the remaining binding (EGFR(G719C)) was 100%. For the same compound, the remaining binding (NEK10) was 97%, the remaining binding (PAK6) was 100% and the remaining binding (DRAK2) was 83%.
